Source: patent EP0643964A2 (priority 1993, dated 1995)
Several values for one entry are separate records, joined by “and”; a condition that tells them apart may be missing. Equal values may be shown once. Read-outs that look alike come from different tables or passages of the source.

What was measured:
canine parvovirus (CPV) = assay type: in vivo, dogs; details: for Viral titers (hemagglutination): Treated group (A): 5 ml 2% lidocaine i.v. twice a day 2 days; for Viral titers of enteric homogenates: Treated group (A), titers obtained on Vero cells
Giardia lamblia = test: Patients with malabsorption syndrome (MAS) caused by Giardia lamblia; assay type: in vivo, human
Excerpt: Volunteer # 1: Type II MAS with positive isolation of Giardia lamblia in duodenal washings and confirmation of the disease by histopathology. […] One month later, patient 1 presented symptoms and signs of recurrence of the disease, with positive isolation of parasites in feces.
Volunteer # 2: with diffuse abdominal pain, loss of body weight and steatorrhea.

herpes simplex = test: Evolution of recidivant periorificial herpes simplex infection in volunteers; assay type: in vivo, human
Experimental: Patients were divided into 3 groups: one of the groups (n=4) received acyclovir by oral route and topical applications of the same drug. […] Experiments began with the appearance of the next episode of herpes, just in the moment when vesicles appeared.
All these patients were controlled monthly during the following 4 months. During this time, group A patients presented episodes with a pattern similar to that they had before the experiment was performed. […] The remaining two presented an episode of herpes 2.8 and 3.3 months later.

herpes zoster = test: Herpes zoster infection in patients; assay type: in vivo, human
Excerpt: PATIENT A: who presented a grade II vesical transitional carcinoma that was endoscopically resected. 60 days after resection they presented their first herpetic episode in chest, of 10 days of evolution. 175 days later, a second episode was presented, beginning with hyper and parastesy in the affected area and sudden appearance of vesicles.
PATIENT B: without any apparent disease. 20 and 12 months before they presented two episodes of herpes zoster in the right submammary area, of high intensity, with exquisite pain that made impossible contact with clothes, each episode lasting 3 weeks. At the present time, the patient presented their third episode, preceded by fever (during 48 hours), with crusted vesicles, some of them impetiginized.
PATIENT C: with a breast cancer, under chemo and hormone therapy. After each chemotherapy schedule received, they developed an herpetic episode in the left leg.

[1] = test system: EL4 h-2^b murine T-Lymphoma; test: In vitro cell growth, EL4 seeded petri dishes (Trypan blue count); assay type: cell-based; details: for Cells Alive ± STD: 72 hours
Experimental: (§1) EL4 h-2^b murine T-Lymphoma (2x10⁶ cells) and P815 H-2^d mastocytoma cells (2x10⁶ cells) (kindly provided by Prof. Gideon Berke at the Weizmann Institute of Sciences, Rehovot, Israel) suspended in 2 ml RPMI-HEPES supplemented with […] and 10% fetal calf serum (FCS) were seeded in every one of 10 petri dishes for each of five groups for the EL4 cells and two groups for the P815 cells. […] Group E dishes were co-cultivated with 0.1 ml RPMI-HEPES alone.
(§2) Petri dishes were incubated for 72 hours at 37°C in 5% CO₂ atmosphere. The cells harvested from the petri dishes were then centrifuged, diluted with 1% Trypan blue and counted on a Neubauer chamber.

[2] = test system: P815 H-2^d mastocytoma cells; test: In vitro cell growth, P815 seeded petri dishes (Trypan blue count); assay type: cell-based
Experimental: as §1, §2

[3] = test system: P815 H-^d mastocytoma cells; test: Mastocytoma transplanted BALB/c mice, peritoneal cell count; assay type: in vivo; details: for Cellular count ± STD / I/C: Percentual increment over control growth: Group A
Experimental: Two groups of BALB/c mice were injected with 15X10⁶ P815 H-^d mastocytoma cells by intraperitoneal route. […] The other group (B) was treated with saline.
On the third day assay and for the next three days, 5 mice per group were sacrificed. The peritoneal cavity was washed with phosphate buffered saline (PBS) and the ascitic fluid aspirated with syringe and centrifuged for 10 minutes at 500 Xg. The supernatant was then discarded and the cells diluted in 1% Trypan blue were counted on a Neubauer chamber. The cell count for each group can be observed in Table 3.

M3 tumor = test: M3 transplanted mice, tumor area (lidocaine and epidoxorrubicine); assay type: in vivo
[4] = Volunteer # 2, day 7 post-treatment
[5] = herpes simplex episode, ACV oral+topical, lidocaine 5 ml 2% i.v. twice a day 2 days
[6] = Mus musculus, 72 h, read-out: I/C: Percentual increment over control growth

CCN(CC)CC(=O)Nc1c(C)cccc1C [lidocaine]
Mortality (canine parvovirus (CPV); CPV infected dogs, group A (treated), all controls died by 60 hours): no mortality | Viral titers (hemagglutination) (canine parvovirus (CPV); 12 hrs. after first signs): 0 inverse of the last dilution which agglutinated sheep red cells | Viral titers (hemagglutination) (canine parvovirus (CPV); 24 hrs.): 16 inverse of the last dilution which agglutinated sheep red cells | Viral titers (hemagglutination) (canine parvovirus (CPV); 36 hrs.): 320 inverse of the last dilution which agglutinated sheep red cells | Viral titers (hemagglutination) (canine parvovirus (CPV); 48 hrs.): 320 inverse of the last dilution which agglutinated sheep red cells | Viral titers (hemagglutination) (canine parvovirus (CPV); 60 hrs.): 160 inverse of the last dilution which agglutinated sheep red cells | Viral titers (hemagglutination) (canine parvovirus (CPV); 72 hrs.): 40 inverse of the last dilution which agglutinated sheep red cells | Viral titers (hemagglutination) (canine parvovirus (CPV); 84 hrs.): 40 inverse of the last dilution which agglutinated sheep red cells | Viral titers (hemagglutination) (canine parvovirus (CPV); 96 hrs.): 40 inverse of the last dilution which agglutinated sheep red cells | Viral titers of enteric homogenates (canine parvovirus (CPV); 12 hrs.): 2.1 x 10^2 TCID₅₀/ml | Viral titers of enteric homogenates (canine parvovirus (CPV); 24 hrs.): 0.1 x 10^4 TCID₅₀/ml | Viral titers of enteric homogenates (canine parvovirus (CPV); 36 hrs.): 0.5 x 10^7 TCID₅₀/ml | Viral titers of enteric homogenates (canine parvovirus (CPV); 48 hrs.): 0.3 x 10^7 TCID₅₀/ml | Viral titers of enteric homogenates (canine parvovirus (CPV); 60 hrs.): 2.3 x 10^5 TCID₅₀/ml | Viral titers of enteric homogenates (canine parvovirus (CPV); 72 hrs.): 6.3 x 10^4 TCID₅₀/ml | Viral titers of enteric homogenates (canine parvovirus (CPV); 84 hrs.): 5.8 x 10^4 TCID₅₀/ml | Viral titers of enteric homogenates (canine parvovirus (CPV); 96 hrs.): 6.0 x 10^4 TCID₅₀/ml | Signs of the disease (canine parvovirus (CPV); group A, after 48 hours from the beginning of treatment): none of the animals showed signs of the disease | Histological aspect of enteric mucosa (canine parvovirus (CPV); group A, by 72 hours post-treatment): normal histological aspect | D-xylose and Van der Kamer tests (Giardia lamblia; Volunteer # 1, five days later): normal values | Enteric histopathological examination (Giardia lamblia; Volunteer # 1, five days later (type II MAS before)): type I MAS | isolation of parasites in feces (Giardia lamblia; Volunteer # 1, i.v. twice a day 2 days, five days later): negative results | All tests performed (Giardia lamblia; Volunteer # 1, thirty days later): normalization of enteric function with negative isolation of parasites | D-xylose and Van der Kamer tests (Giardia lamblia; [4]): normal | Symptoms (Giardia lamblia; [4]): asymptomatic | microscopic examination of enteric mucosa (Giardia lamblia; Volunteer # 2, day 7 post-treatment (type II MAS before)): type I MAS | Overall status (Giardia lamblia; Volunteer # 2, day 28 post-treatment): asymptomatic, with gain of weight, normal tests, negative isolation of parasites and a normalization of the microscopic aspect of the enteric mucosa | isolation of parasites (Giardia lamblia; Volunteer # 2, i.v. twice a day 2 days (5 ml, 2%), day 7 post-treatment): negative results | Pain (herpes simplex; Group B, by 48 hours after treatment was begun): no pain existed | Vesicle evolution (herpes simplex; Group B, lidocaine i.v. at appearance of vesicles): Neither rupture of vesicles nor crust formation was found | Duration of lesions (herpes simplex; [5]): 4.5 days | Duration of symptoms (herpes simplex; [5]): 2 days | FIRST EPISODE AFTER TREATMENT (herpes simplex; individual patients, followed monthly for 4 months): 84 days and 94 days | patients who did not present another episode of the disease (herpes simplex; patients who received lidocaine (groups B and C), 4 months follow-up): 4 of 6 | time to next episode of herpes (herpes simplex; the remaining two lidocaine patients): 2.8 months and 3.3 months | Evolution of herpetic lesions (herpes zoster; PATIENT C, breast cancer under chemo and hormone therapy): residual hyperesthesia persisted | time to healing (crusts detached / all vesicles healed) (herpes zoster; individual patients (A, B)): ≤ 7 day post-treatment and 10 day post-treatment | time to disappearance of pain (herpes zoster; individual patients (A, B), i.v. twice a day 2 days): ≤ 5 days and 5 days | Cells Alive ± STD ([1]; Group A, 0.1 ml 2% lidocaine in 2 ml, 2 millions seeded, control 5.92E+06): 5.16E+06 ± 0.04 millions of cells | Dead cells ([1]; Group A, 2% lidocaine, control 2.08E+06): 2.78E+06 | Cells Alive ± STD ([1]; Group B, 0.1 ml 0.5% lidocaine): 5.90E+06 ± 0.03 millions of cells | Dead cells ([1]; Group B, 0.5% lidocaine): 1.64E+06 | Dead cells ([1]; Group C, 0.05% lidocaine): 1.52E+06 | Cells Alive ± STD ([1]; Group C, 0.1 ml 0.05% lidocaine): 5.46E+06 ± 0.01 millions of cells | Dead cells ([1]; Group D, 0.005% lidocaine): 1.12E+06 | Cells Alive ± STD ([1]; Group D, 0.1 ml 0.005% lidocaine): 3.48E+06 ± 0.02 millions of cells | inhibition at 0.005 % [1, 6]: 41.2% | inhibition at 0.05 % [1, 6]: 7.77% | inhibition at 0.5 % [1, 6]: 0.34% | inhibition at 2 % [1, 6]: 12.8% | cytotoxicity at 2 % ([1]; Mus musculus, EL4, 72 h, read-out: amount of dead cells): 35% | amount of dead cells ([1]; groups B to E (0.5%, 0.05%, 0.005% lidocaine and control), 4320 min): 20-25% | Alive Cells ± STD ([2]; Group A, 0.1 ml 0.005% lidocaine, 72 hours, control 4.66E+06): 3.77E+06 ± 0.11 millions of cells | Dead cells ([2]; Group A, 0.1 ml 0.005% lidocaine, control 2.33E+06): 1.96E+06 | inhibition at 0.005 % ([2]; Mus musculus, P815, 72 h, read-out: I/C: Percentual increment over control growth): 19.1% | Cellular count ± STD ([3]; 0.1 ml 0.5% lidocaine 24 h after transplant, 48 Hs p-t, control 5.30E+07): 2.85E+07 ± 0.78 millions of cells | I/C: Percentual increment over control growth ([3]; 48 Hs p-t): -46.18% | I/C: Percentual increment over control growth ([3]; 72 Hs p-t): -37.11% | Cellular count ± STD ([3]; 72 Hs p-t, control 1.59E+08): 1.00E+08 ± 3.38 millions of cells | I/C: Percentual increment over control growth ([3]; 96 Hs p-t): 27.15% | reduction in the growth rate ([3]; first 24 hours of lidocaine treatment, decreasing 10% per day afterwards): ~50% | Area (tumor) (M3 tumor; day 7 p-t (day 0), lidocaine 0.1 ml 0.05% every 7 days, epidoxorrubicine 0.125 ml 0.2% every 7 days, combination: lidocaine 2 days after epidoxorrubicine): 0.46 | I/Ø: Percentual increment over tumor in day 0 (day 7 p-t) (M3 tumor; day 10 p-t, saline control 103.47): 18.75% | Area (tumor) (M3 tumor; day 12 p-t, regimens as Table 5 footnotes, saline control 1.56): 0.70 | I/Ø: Percentual increment over tumor in day 0 (day 7 p-t) (M3 tumor; day 12 p-t, saline control 245.61): 51.56% | Area (tumor) (M3 tumor; day 14 p-t, regimens as Table 5 footnotes, saline control 2.06): 0.96 | I/Ø: Percentual increment over tumor in day 0 (day 7 p-t) (M3 tumor; day 14 p-t, saline control 357.57): 107.81% | Area (tumor) (M3 tumor; day 16 p-t, regimens as Table 5 footnotes, saline control 2.78): 1.11 | I/Ø: Percentual increment over tumor in day 0 (day 7 p-t) (M3 tumor; day 16 p-t, saline control 516.74): 142.19% | Area (tumor) (M3 tumor; day 18 p-t, regimens as Table 5 footnotes, saline control 3.61): 1.38 | Area (tumor) (M3 tumor; day 21 p-t, regimens as Table 5 footnotes, saline control 4.61): 1.93 | Area (tumor) (M3 tumor; day 23 p-t, regimens as Table 5 footnotes, saline control 5.49): 2.90 | Area (tumor) (M3 tumor; day 25 p-t, regimens as Table 5 footnotes, saline control 6.24): 3.57 | I/Ø: Percentual increment over tumor in day 0 (day 7 p-t) (M3 tumor; day 25 p-t, saline control 1286.33): 676.56%
